PubChem BioAssay AID1963838 (Molecular Pharmacology Branch, DTP, NCI, 2024)

Tested on: 855422-203-R-J1-PDC complex spheroid viability
Assay: Anticancer human tumor 855422-203-R-J1-PDC patient-derived bladder carcinoma cell line growth inhibition [POLQ]
Details: for IC50: curve of first compound; for viability, T/C: stronger effect = lower value
Procedure, shortened: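 Patient-derived tumour cells were co-cultured with HUVEC and mesenchymal stem cells as multicellular spheroids at 37 °C. They were treated with POLQ inhibitors (novobiocin, ART-558, RP6685) alone or combined with other agents. Top concentrations were at or near clinical Cmax (otherwise 10 microM; SN-38 at 1 microM), decreasing in half-log steps.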

[1] = second compound 0.0316 µM, first compound 0.00316 µM
[2] = second compound 0.0316 µM, first compound 0.01 µM
[3] = second compound 0.0316 µM, first compound 0.0316 µM
[4] = second compound 0.0316 µM, first compound 0.1 µM
[5] = second compound 0.0316 µM, first compound 0.316 µM
[6] = second compound 0.0316 µM, first compound 1 µM
[7] = second compound 0.1 µM, first compound 0.00316 µM
[8] = second compound 0.1 µM, first compound 0.01 µM
[9] = second compound 0.1 µM, first compound 0.0316 µM
[10] = second compound 0.1 µM, first compound 0.1 µM
[11] = second compound 0.1 µM, first compound 0.316 µM
[12] = second compound 0.1 µM, first compound 1 µM
[13] = second compound 0.316 µM, first compound 0.00316 µM
[14] = second compound 0.316 µM, first compound 0.01 µM
[15] = second compound 0.316 µM, first compound 0.0316 µM
[16] = second compound 0.316 µM, first compound 0.1 µM
[17] = second compound 0.316 µM, first compound 0.316 µM
[18] = second compound 0.316 µM, first compound 1 µM
[19] = second compound 1 µM, first compound 0.00316 µM
[20] = second compound 1 µM, first compound 0.01 µM
[21] = second compound 1 µM, first compound 0.0316 µM
[22] = second compound 1 µM, first compound 0.1 µM
[23] = second compound 1 µM, first compound 0.316 µM
[24] = second compound 1 µM, first compound 1 µM
[25] = second compound 3.16 µM, first compound 0.00316 µM
[26] = second compound 3.16 µM, first compound 0.01 µM
[27] = second compound 3.16 µM, first compound 0.0316 µM
[28] = second compound 3.16 µM, first compound 0.1 µM
[29] = second compound 3.16 µM, first compound 0.316 µM
[30] = second compound 3.16 µM, first compound 1 µM
[31] = second compound 10 µM, first compound 0.00316 µM
[32] = second compound 10 µM, first compound 0.01 µM
[33] = second compound 10 µM, first compound 0.0316 µM
[34] = second compound 10 µM, first compound 0.1 µM
[35] = second compound 10 µM, first compound 0.316 µM
[36] = second compound 10 µM, first compound 1 µM
[37] = second compound 0.0316 µM, first compound 3.16 µM
[38] = second compound 0.0316 µM, first compound 10 µM
[39] = second compound 0.1 µM, first compound 3.16 µM
[40] = second compound 0.1 µM, first compound 10 µM
[41] = second compound 0.316 µM, first compound 3.16 µM
[42] = second compound 0.316 µM, first compound 10 µM
[43] = second compound 1 µM, first compound 3.16 µM
[44] = second compound 1 µM, first compound 10 µM
[45] = second compound 3.16 µM, first compound 3.16 µM
[46] = second compound 3.16 µM, first compound 10 µM
[47] = second compound 10 µM, first compound 3.16 µM
[48] = second compound 10 µM, first compound 10 µM
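Further: spheroids exposed to compounds for seven days before readout.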

COc1cccc(OCCCN)c1-c1cc(Nc2cnc(C#N)cn2)n[nH]1 + Cc1cccc(N(C)C(=O)C2C(O)CCN2c2nc(C)cc(C(F)(F)F)c2C#N)c1
IC50 (second compound 0.0316 µM): 26.3 nM
IC50 (second compound 0.1 µM): 23.9 nM
IC50 (second compound 0.316 µM): 25.6 nM
IC50 (second compound 1 µM): 24.7 nM
IC50 (second compound 3.16 µM): 23.7 nM
IC50 (second compound 10 µM): 21.7 nM
viability, T/C [1]: 122%
viability, T/C [2]: 162%
viability, T/C [3]: 32.3%
viability, T/C [4]: 11.9%
viability, T/C [5]: 8.13%
viability, T/C [6]: 5.03%
viability, T/C [7]: 98.7%
viability, T/C [8]: 149%
viability, T/C [9]: 26.4%
viability, T/C [10]: 8.17%
viability, T/C [11]: 7.52%
viability, T/C [12]: 6.18%
viability, T/C [13]: 99.1%
viability, T/C [14]: 144%
viability, T/C [15]: 34.1%
viability, T/C [16]: 13.6%
viability, T/C [17]: 7.31%
viability, T/C [18]: 6.21%
viability, T/C [19]: 97.4%
viability, T/C [20]: 133%
viability, T/C [21]: 32.1%
viability, T/C [22]: 9.07%
viability, T/C [23]: 8.72%
viability, T/C [24]: 8.98%
viability, T/C [25]: 87.8%
viability, T/C [26]: 183%
viability, T/C [27]: 21.4%
viability, T/C [28]: 14.6%
viability, T/C [29]: 7.43%
viability, T/C [30]: 5.57%
viability, T/C [31]: 137%
viability, T/C [32]: 94.1%
viability, T/C [33]: 28.3%
viability, T/C [34]: 11.2%
viability, T/C [35]: 9.5%
viability, T/C [36]: 7.47%

Cn1ncnc1[C@H]1c2n[nH]c(=O)c3cc(F)cc(c23)N[C@@H]1c1ccc(F)cc1 + Cc1cccc(N(C)C(=O)C2C(O)CCN2c2nc(C)cc(C(F)(F)F)c2C#N)c1
IC50 (second compound 0.0316 µM): > 100 nM
IC50 (second compound 0.1 µM): > 100 nM
IC50 (second compound 0.316 µM): > 100 nM
IC50 (second compound 1 µM): > 100 nM
IC50 (second compound 3.16 µM): > 100 nM
IC50 (second compound 10 µM): > 100 nM
viability, T/C (second compound 0.0316 µM, first compound 0.000316 µM): 114%
viability, T/C (second compound 0.0316 µM, first compound 0.001 µM): 107%
viability, T/C [1]: 115%
viability, T/C [2]: 108%
viability, T/C [3]: 108%
viability, T/C [4]: 103%
viability, T/C (second compound 0.1 µM, first compound 0.000316 µM): 102%
viability, T/C (second compound 0.1 µM, first compound 0.001 µM): 103%
viability, T/C [7]: 98.5%
viability, T/C [8]: 100%
viability, T/C [9]: 105%
viability, T/C [10]: 107%
viability, T/C (second compound 0.316 µM, first compound 0.000316 µM): 108%
viability, T/C (second compound 0.316 µM, first compound 0.001 µM): 104%
viability, T/C [13]: 116%
viability, T/C [14]: 104%
viability, T/C [15]: 116%
viability, T/C [16]: 104%
viability, T/C (second compound 1 µM, first compound 0.000316 µM): 100%
viability, T/C (second compound 1 µM, first compound 0.001 µM): 109%
viability, T/C [19]: 112%
viability, T/C [20]: 102%
viability, T/C [21]: 104%
viability, T/C [22]: 97.3%
viability, T/C (second compound 3.16 µM, first compound 0.000316 µM): 98.6%
viability, T/C (second compound 3.16 µM, first compound 0.001 µM): 98%
viability, T/C [25]: 96.4%
viability, T/C [26]: 113%
viability, T/C [27]: 113%
viability, T/C [28]: 104%
viability, T/C (second compound 10 µM, first compound 0.000316 µM): 109%
viability, T/C (second compound 10 µM, first compound 0.001 µM): 103%
viability, T/C [31]: 94.4%
viability, T/C [32]: 100%
viability, T/C [33]: 111%
viability, T/C [34]: 99.2%

Nc1ccn(C2OC(CO)C(O)C2(F)F)c(=O)n1 (stereo not drawn) + Cc1cccc(N(C)C(=O)C2C(O)CCN2c2nc(C)cc(C(F)(F)F)c2C#N)c1
IC50 (second compound 0.0316 µM): 78.9 nM
IC50 (second compound 0.1 µM): 101 nM
IC50 (second compound 0.316 µM): 76.9 nM
IC50 (second compound 1 µM): 85.7 nM
IC50 (second compound 3.16 µM): 77.1 nM
IC50 (second compound 10 µM): 69.8 nM
viability, T/C [3]: 84.7%
viability, T/C [4]: 41%
viability, T/C [5]: 12.6%
viability, T/C [6]: 12.4%
viability, T/C [37]: 8.52%
viability, T/C [38]: 7.11%
viability, T/C [9]: 86.4%
viability, T/C [10]: 50.5%
viability, T/C [11]: 13.6%
viability, T/C [12]: 9.98%
viability, T/C [39]: 8.34%
viability, T/C [40]: 6.1%
viability, T/C [15]: 81.7%
viability, T/C [16]: 40.7%
viability, T/C [17]: 11.9%
viability, T/C [18]: 10.9%
viability, T/C [41]: 8.07%
viability, T/C [42]: 5.67%
viability, T/C [21]: 83.7%
viability, T/C [22]: 44.8%
viability, T/C [23]: 12%
viability, T/C [24]: 11.7%
viability, T/C [43]: 8.68%
viability, T/C [44]: 6.87%
viability, T/C [27]: 86.5%
viability, T/C [28]: 39.4%
viability, T/C [29]: 14.8%
viability, T/C [30]: 10.2%
viability, T/C [45]: 10.4%
viability, T/C [46]: 6.57%
viability, T/C [33]: 84.5%
viability, T/C [34]: 34.4%
viability, T/C [35]: 13.3%
viability, T/C [36]: 12.7%
viability, T/C [47]: 8.82%
viability, T/C [48]: 8.17%

O=C(c1cc(Cc2n[nH]c(=O)c3ccccc23)ccc1F)N1CCN(C(=O)C2CC2)CC1 + Cc1cccc(N(C)C(=O)C2C(O)CCN2c2nc(C)cc(C(F)(F)F)c2C#N)c1
IC50 (second compound 0.0316 µM): > 10000 nM
IC50 (second compound 0.1 µM): > 10000 nM
IC50 (second compound 0.316 µM): > 10000 nM
IC50 (second compound 1 µM): > 10000 nM
IC50 (second compound 3.16 µM): > 10000 nM
IC50 (second compound 10 µM): > 10000 nM
viability, T/C [3]: 117%
viability, T/C [4]: 114%
viability, T/C [5]: 117%
viability, T/C [6]: 107%
viability, T/C [37]: 101%
viability, T/C [38]: 80.1%
viability, T/C [9]: 111%
viability, T/C [10]: 103%
viability, T/C [11]: 108%
viability, T/C [12]: 109%
viability, T/C [39]: 101%
viability, T/C [40]: 75.3%
viability, T/C [15]: 105%
viability, T/C [16]: 95%
viability, T/C [17]: 110%
viability, T/C [18]: 111%
viability, T/C [41]: 103%
viability, T/C [42]: 76.8%
viability, T/C [21]: 104%
viability, T/C [22]: 108%
viability, T/C [23]: 111%
viability, T/C [24]: 107%
viability, T/C [43]: 106%
viability, T/C [44]: 81.2%
viability, T/C [27]: 93.8%
viability, T/C [28]: 103%
viability, T/C [29]: 120%
viability, T/C [30]: 103%
viability, T/C [45]: 105%
viability, T/C [46]: 66.9%
viability, T/C [33]: 109%
viability, T/C [34]: 113%
viability, T/C [35]: 114%
viability, T/C [36]: 106%
viability, T/C [47]: 96.7%
viability, T/C [48]: 65.1%
